Measurements: patent US12226432B2, “Polymer nanoparticle, polymer composition, method of making a polymer nanoparticle, method for treatment of bacterial biofilms, and method for detection of bacterial biofilms” (UNIVERSITY OF MASSACHUSETTS, priority 2016, dated 2025)

Assays:
[1] = system: uropathogenic E. coli (CD-2); format: cell-based; conditions: serial passaging at sub-MIC, CD-2 E. coli
Method: The culture was then harvested and tested for MIC as describe above. E. coli CD-2 was cultured without polymer as well every time as a control for comparison of MICs.
Bacteria are capable of acquiring resistance quickly towards antibiotics and other antimicrobials, minimizing their therapeutic prospects in clinical settings. […] The resulting bacterial population was defined as the first generation, harvested, and its MIC was evaluated. Subsequently, a second generation was produced by exposing first generation with 66% MIC dosage of polymers. […] Similar experiments were conducted on ciprofloxacin (quinolone) and ceftazidime ([…]), clinically relevant antibiotics.

NIH 3T3 fibroblast cells = format: cell-based
Method: The ability to eradicate biofilms on human tissue or organs is also of significant importance. An in vitro co-culture model of mammalian fibroblast cells with biofilms grown over them was used. […] Next, P. aeruginosa bacteria was seeded on a confluent monolayer of NIH 3T3 fibroblast cells overnight to generate biofilms prior to treatment.

red blood cells (RBCs) = assay: Hemolysis of red blood cells (HC50); format: cell-based, human
Method: Determination of Hemolysis of Cationic Polymers: Citrate-stabilized human whole blood (pooled, mixed gender) was purchased from Bioreclamation LLC, NY and processed as soon as received. 10 milliliters of phosphate buffered saline (PBS) was added to the blood and centrifuged at 5000 rpm for 5 minutes. The supernatant was carefully discarded and the red blood cells (RBCs) were dispersed in 10 milliliters of PBS. This step was repeated at least five times. The purified RBCs were diluted in 10 milliliters of PBS and kept on ice during the sample preparation. 0.1 milliliter of RBC solution was added to 0.4 milliliters of polymer solution in PBS in a 1.5 milliliter centrifuge tube (Fisher) and mixed gently by pipetting. RBCs incubated with PBS and water was used as negative and positive controls, respectively. All polymer samples as well as controls were prepared in triplicate. The mixture was incubated at 37° C. for 30 minutes while shaking at 150 rpm. After incubation period, the solution was centrifuged at 4000 rpm for 5 minutes and 100 microliters of supernatant was transferred to a 96-well plate. The absorbance value of the supernatant was measured at 570 nm using a microplate reader (SpectraMax M2, Molecular devices) with absorbance at 655 nm as a reference. The percent hemolysis was calculated using the following formula: […]

E. coli CD-549 = assay: Checkerboard titration, antibiotic-nanoparticle synergy, CD-549; format: cell-based; conditions: in combination with polymer nanoparticles, FIG. 20
Method: (§1) To assess possible synergy between antibiotics and polymeric nanoparticles, two-dimensional checkerboard titrations were performed using a micro-dilution method. […] The checkerboard titrations were performed in a set of three independent experiments, repeated on different days.
(§2) Antibiotic-nanoparticle interaction was determined by calculating the fractional inhibitory concentration of antibiotics (FICAb) and NPs (FICNP) according to the following equations: FICAb=(MIC of antibiotic and NP combination)÷(MIC of antibiotic alone) FICNP=(MIC of antibiotic and NP combination)÷(MIC of NP alone) FICIcombination=FICAb+FICNP
(§3) FICAb was plotted against FICNP. A concave curve indicates synergy, whereas a convex curve indicates antagonism. Synergy was defined as FICI values ≤0.5, antagonism by FICI values >4.0, and additive interaction by FICI values between >0.5 and 4.0. The experiments were conducted across four different planktonic bacteria strains (E. clocae complex “CD-1412”; Pseudomonas aeruginosa “CD-40”; E. coli “CD-549”; and Acinetobacter species “CD-575”). […] In the presence of polymer nanoparticles, colistin's uptake in biofilms is enhanced nearly 3.5 times.

[2] = system: Pseudomonas aeruginosa CD-40; assay: Checkerboard titration, antibiotic-nanoparticle synergy, CD-40; format: cell-based; conditions: in combination with polymer nanoparticles, FIG. 20
Method: as §1, §2, §3

[3] = system: E. clocae complex CD-1412; assay: Checkerboard titration, antibiotic-nanoparticle synergy, CD-1412; format: cell-based, E. cloacae; conditions: in combination with polymer nanoparticles, FIG. 20
Method: as §1, §2, §3

[4] = system: Acinetobacter species CD-575; assay: Checkerboard titration, antibiotic-nanoparticle synergy, CD-575; format: cell-based; conditions: in combination with polymer nanoparticles, FIG. 20
Method: as §1, §2, §3

O=C(O)c1cn(C2CC2)c2cc(N3CCNCC3)c(F)cc2c1=O [ciprofloxacin]
increase in the MICs after serial passaging [1]: 33,000 fold

poly(oxanorbomeneimide)undecyl trimethylammonium analog [Example 5]
toxicity to NIH 3T3 fibroblast cells (NIH 3T3 fibroblast cells): No significant toxicity | HC50 (red blood cells (RBCs)): 4700 µg/mL

colistin
antibiotic-nanoparticle interaction (FICI) (E. coli CD-549): therapeutically synergistic | antibiotic-nanoparticle interaction (FICI) [2]: therapeutically synergistic | antibiotic-nanoparticle interaction (FICI) [3]: therapeutically synergistic | antibiotic-nanoparticle interaction (FICI) [4]: therapeutically synergistic

CC(C)(O/N=C(\C(=O)N[C@@H]1C(=O)N2C(C(=O)[O-])=C(C[n+]3ccccc3)CS[C@H]12)c1csc(N)n1)C(=O)O [ceftazidime]
increase in the MICs after serial passaging [1]: 4,200 fold
